Results from PMC7496931, “Activation of Sirtuin 2 Inhibitors Employing Photoswitchable Geometry and Aqueous Solubility” (Chemmedchem, 2020).
“And” between values parts separate entries of the source, which are not always exact repeats. Equal values may be shown once. Read-outs that look alike come from different tables or passages of the source.

Assays:
Format in all cases: biochemical
Sirt2 = target: T1, Sirt2 (Homo sapiens, UniProt Q8IXJ6); assay: Fluorescence-based ZMAL deacetylase activity assay, Sirt2; set-up: key to Sirt2 inhibition Δ (class): n.i.: no inhibition detected (<30 % @ 100 μM); u.i.: unspecific interactions
T1 construct: Expression and purification of Sirt1_133−747, Sirt2_56−356, and Sirt3_118−395 was carried out as described previously; made in house
T1 sequence (Q8IXJ6 56-356): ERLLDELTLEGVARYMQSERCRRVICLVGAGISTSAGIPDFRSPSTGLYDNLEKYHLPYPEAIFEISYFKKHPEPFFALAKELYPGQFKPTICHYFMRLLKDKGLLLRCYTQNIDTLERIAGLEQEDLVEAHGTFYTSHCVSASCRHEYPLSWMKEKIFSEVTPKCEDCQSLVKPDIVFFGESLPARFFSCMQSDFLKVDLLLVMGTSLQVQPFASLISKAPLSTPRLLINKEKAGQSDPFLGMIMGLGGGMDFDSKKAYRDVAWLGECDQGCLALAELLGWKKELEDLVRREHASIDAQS
Description: (§1) The effect of the compounds on deacetylase activity of three human sirtuin isotypes (Sirt1–3) was investigated by a homogeneous fluorescence‐based assay, using (Z)‐Lys(acetyl)‐AMC (ZMAL) as substrate. In order to determine the impact of photoisomerization, the respective compounds were irradiated (365 nm, 5 min) in DMSO prior to incubation in the enzyme assay mixture. The results of the irradiated probes were finally compared to non‐irradiated measurements.
(§2) Cloning, expression and purification of recombinant proteins: Expression and purification of Sirt1_133−747, Sirt2_56−356, and Sirt3_118−395 was carried out as described previously.27 Identity and purity were verified by SDS‐PAGE.
(§3) Fluorescence‐based activity assay: The inhibitory effect of compounds on Sirt1–3 was detected via a previously reported fluorescence‐based assay.29 The synthetic substrate (Z)‐Lys(acetyl)‐AMC (ZMAL) is deacetylated by sirtuins, followed by tryptic digestion and thereby release of 7‐aminomethylcoumarin, leading to a fluorescent readout. Inhibition was determined by comparing percentage substrate conversion to a DMSO control after subtraction of the blank fluorescence signal. All compounds were tested at 100 or 50 μM and 10 μM respectively. […] IC50 values were calculated with OriginPro 9.0 G using a non‐linear regression to fit the dose response curve (Figure S6). An enzyme‐free blank control and a 100 % conversion control using AMC instead of ZMAL were measured as well. Inhibition measurements were performed in biological duplicates for all compounds. […]
(§4) Fluorescence-Based Activity Assay (ZMAL-Assay)
(§5) The influence of the synthesized compounds on the deacetylase activity of the class I sirtuins Sirt1–3 was determined in a homogenous fluorescence-based enzyme assay, using the artificial substrate Z-(Ac)Lys-AMC (ZMAL). ZMAL is processed by sirtuins yielding Z-Lys-AMC.
(§6) The latter is subsequently cleaved by tryptic digestion, releasing 7-amino-4-methylcoumarin (AMC), excitation of which leads to a fluorescent read out (λex=390 nm; λem=460 nm). Instead, […]
(§7) contribute to the fluorescence signal. Therefore, the fluorescence intensity is proportional to the activity of the respective sirtuin.
(§8) After subtraction of the blank fluorescence signal (without enzyme) from the signal of the respective probe, the residual signal intensity is related to a 100 % conversion control (AMC), […]
(§9) yielding the percentage substrate conversion. Comparison of the determined substrate conversion with a no-inhibition DMSO control yields the percentage inhibition at the respective […]
(§10) For determination of IC50, inhibitory activity of the respective compound was determined at 8 to 10 distinct concentrations. The measured values were analysed by a non-linear fit to the dose-response curve using a four parameter logistic model (Figure S6):
(§11) Figure S6: Non-linear regression of the dose-response curves of compounds 15c and 15f at the thermal equilibrium (∆, black) and after 5 minutes of 365 nm irradiation (red). […]
(§12) A maximal polarization control using just DMSO and a minimal polarization control using 1 µL of the 400 µM solution of 22 instead of inhibitor were performed as well as a blank control containing 1 µL of DMSO in 19 µL assay buffer. The mixture was incubated 10 min at 37 °C

Sirt1 = target: T2, Sirt1 (Homo sapiens, UniProt Q96EB6); assay: Fluorescence-based ZMAL deacetylase activity assay, Sirt1
T2 construct: Expression and purification of Sirt1_133−747, Sirt2_56−356, and Sirt3_118−395 was carried out as described previously; made in house
T2 sequence (Q96EB6 133-747): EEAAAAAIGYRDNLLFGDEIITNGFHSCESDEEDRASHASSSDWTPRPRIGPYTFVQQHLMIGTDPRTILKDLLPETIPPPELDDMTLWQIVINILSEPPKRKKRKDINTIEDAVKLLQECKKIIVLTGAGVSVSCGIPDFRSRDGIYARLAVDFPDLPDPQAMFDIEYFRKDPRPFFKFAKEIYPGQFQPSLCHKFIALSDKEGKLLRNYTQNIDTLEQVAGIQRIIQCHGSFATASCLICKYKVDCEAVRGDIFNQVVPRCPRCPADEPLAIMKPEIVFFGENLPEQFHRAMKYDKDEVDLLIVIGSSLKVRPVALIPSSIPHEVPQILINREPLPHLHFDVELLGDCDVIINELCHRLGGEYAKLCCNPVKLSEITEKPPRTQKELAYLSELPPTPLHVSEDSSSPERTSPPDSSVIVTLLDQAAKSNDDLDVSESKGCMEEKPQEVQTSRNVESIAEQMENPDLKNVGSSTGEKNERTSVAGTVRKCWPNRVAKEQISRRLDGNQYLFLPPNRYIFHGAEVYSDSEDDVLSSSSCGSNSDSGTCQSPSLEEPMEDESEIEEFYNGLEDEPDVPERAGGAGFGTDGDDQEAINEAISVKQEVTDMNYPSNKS
Description: as §1, §2, §3, §4, §5, §6, §7, §8, §9, §10, §11
A maximal polarization control using just DMSO and a minimal polarization control using 1 µL of the 400 µM solution of 22 instead of inhibitor were performed as well as a blank control containing 1 µL of DMSO in 19 µL assay buffer. The mixture was incubated 10 min at 37 °C […]
(1 picture or pasted object on this page, not shown here)

Sirt3 = target: T3, Sirt3 (Homo sapiens, UniProt Q9NTG7); assay: Fluorescence-based ZMAL deacetylase activity assay, Sirt3; set-up: key to Sirt3 inhibition Δ (class) / Sirt3 inhibition PSS [365 nm] (class): n.i.: no inhibition detected (<30 % @ 100 μM); u.i.: unspecific interactions
T3 construct: Expression and purification of Sirt1_133−747, Sirt2_56−356, and Sirt3_118−395 was carried out as described previously; made in house
T3 sequence (Q9NTG7 118-395): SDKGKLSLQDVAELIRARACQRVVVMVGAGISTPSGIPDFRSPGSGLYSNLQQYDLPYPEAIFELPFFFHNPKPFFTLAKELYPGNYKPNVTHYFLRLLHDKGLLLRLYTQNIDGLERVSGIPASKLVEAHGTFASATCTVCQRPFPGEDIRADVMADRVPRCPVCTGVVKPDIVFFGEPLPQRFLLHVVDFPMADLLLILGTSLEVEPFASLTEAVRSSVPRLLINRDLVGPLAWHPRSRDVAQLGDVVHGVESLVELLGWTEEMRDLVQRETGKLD
Description: as §1, §2, §3, §4, §5, §6, §7, §8, §9, §10, §11, §12

[1] = PSS 365 nm versus thermal equilibrium
[2] = PSS after 5 min UV irradiation (365 nm), read-out: Sirt2 inhibition PSS [365 nm], IC50
[3] = thermal equilibrium (Δ), read-out: Sirt2 inhibition Δ, IC50
[4] = PSS after 5 min UV irradiation (365 nm), read-out: Sirt1 inhibition PSS [365 nm], percent inhibition
[5] = thermal equilibrium (Δ), read-out: Sirt1 inhibition Δ (class)
[6] = PSS after 5 min UV irradiation (365 nm), read-out: Sirt3 inhibition PSS [365 nm], IC50
[7] = thermal equilibrium (Δ), read-out: Sirt3 inhibition Δ, IC50
[8] = @ 100 μM, PSS after 5 min UV irradiation (365 nm), read-out: Sirt1 inhibition PSS [365 nm], percent inhibition
[9] = PSS after 5 min UV irradiation (365 nm), read-out: Sirt3 inhibition PSS [365 nm], percent inhibition
[10] = thermal equilibrium (Δ), read-out: Sirt3 inhibition Δ, percent inhibition
[11] = PSS after 5 min UV irradiation (365 nm), read-out: Sirt1 inhibition PSS [365 nm] (class)
[12] = @ 100 μM, thermal equilibrium (Δ), read-out: Sirt1 inhibition Δ, percent inhibition

| Compound | decrease of Sirt2 inhibition upon 365 nm irradiation (factor) (Sirt2; [1]) | IC50 (Sirt2; [2]) | IC50 (Sirt2; [3]) | inhibition at 10 µM (Sirt1; [4]) | inhibition at 100 µM (Sirt1; [5]) | decrease of Sirt3 inhibition upon 365 nm irradiation (factor) (Sirt3; [1]) | IC50 (Sirt3; [6]) | IC50 (Sirt3; [7]) | inhibition at 100 µM (Sirt1; [8]) | inhibition at 10 µM (Sirt2; PSS after 5 min UV irradiation (365 nm), read-out: Sirt2 inhibition PSS [365 nm], percent inhibition (converted)) | inhibition at 10 µM (Sirt2; thermal equilibrium (Δ), read-out: Sirt2 inhibition Δ, percent inhibition (converted)) | inhibition at 10 µM (Sirt3; [9]) | inhibition at 10 µM (Sirt3; [10]) | increase of Sirt2 inhibition upon 365 nm irradiation (factor) (Sirt2; [1]) | inhibition at 100 µM (Sirt1; [11]) | inhibition at 100 µM (Sirt1; [12]) | Sirt2 inhibition Δ (class) (Sirt2; thermal equilibrium (Δ)) | Sirt3 inhibition PSS [365 nm] (class) (Sirt3; PSS after 5 min UV irradiation (365 nm)) | Sirt3 inhibition Δ (class) (Sirt3; thermal equilibrium (Δ)) |
| --- | --- | --- | --- | --- | --- | --- | --- | --- | --- | --- | --- | --- | --- | --- | --- | --- | --- | --- | --- |
| NC(=O)c1cncc(/N=N/c2ccc(Br)cc2)c1 [15 d] | – | 8.4 ± 0.9 µM | 7.5 ± 0.5 µM | – | < 30% | – | 13 ± 2.2 µM | 8.2 ± 1.4 µM | 47% | – | – | – | – | – | – | – | – | – | – |
| CCCCNC(=O)c1ccc(/N=N/c2cncc(C(N)=O)c2)cc1 [15 e] | – | – | – | 10% | < 30% | – | – | – | – | 61% | 51% | 49% | 54% | – | – | – | – | – | – |
| NC(=O)c1cncc(/N=N/c2ccc(C#CCCCCO)cc2)c1 [15 g] | 1.6 fold | 11.8 ± 1 µM | 7.2 ± 0.5 µM | – | – | – | – | – | 54% | – | – | 22% | 64% | – | – | 60% | – | – | – |
| CC(C)(O)C#Cc1ccc(/N=N/c2cncc(C(N)=O)c2)cc1 [15 h] | 2.5 fold | 37.5 ± 5.2 µM | 15.2 ± 1.8 µM | – | < 30% | – | – | – | – | – | – | 18% | 42% | – | < 30% | – | – | – | – |

More lines, main results first:

| decrease of Sirt2 inhibition upon 365 nm irradiation (factor) (Sirt2; [1]) | IC50 (Sirt2; [2]) | IC50 (Sirt2; [3]) | inhibition at 10 µM (Sirt1; [4]) | inhibition at 100 µM (Sirt1; [5]) | decrease of Sirt3 inhibition upon 365 nm irradiation (factor) (Sirt3; [1]) | IC50 (Sirt3; [6]) | IC50 (Sirt3; [7]) | inhibition at 100 µM (Sirt1; [8]) | inhibition at 10 µM (Sirt2; PSS after 5 min UV irradiation (365 nm), read-out: Sirt2 inhibition PSS [365 nm], percent inhibition (converted)) | inhibition at 10 µM (Sirt2; thermal equilibrium (Δ), read-out: Sirt2 inhibition Δ, percent inhibition (converted)) | inhibition at 10 µM (Sirt3; [9]) | inhibition at 10 µM (Sirt3; [10]) | increase of Sirt2 inhibition upon 365 nm irradiation (factor) (Sirt2; [1]) | inhibition at 100 µM (Sirt1; [11]) | inhibition at 100 µM (Sirt1; [12]) | Sirt2 inhibition Δ (class) (Sirt2; thermal equilibrium (Δ)) | Compound | Sirt3 inhibition PSS [365 nm] (class) (Sirt3; PSS after 5 min UV irradiation (365 nm)) | Sirt3 inhibition Δ (class) (Sirt3; thermal equilibrium (Δ)) |
| --- | --- | --- | --- | --- | --- | --- | --- | --- | --- | --- | --- | --- | --- | --- | --- | --- | --- | --- | --- |
| three | 2.8 ± 0.1 µM | 0.9 µM and 0.88 µM | 6% | < 30% | fourfold | 4 ± 0.7 µM | 1.1 ± 0.2 µM | – | – | – | – | – | – | – | – | – | CC(C)(C)OC(=O)NCc1ccc(/N=N/c2cncc(C(N)=O)c2)cc1 [15 c] | – | – |
| – | 1.6 ± 0.2 µM | 37 µM and 36.6 µM | – | < 30% | – | – | – | – | – | – | – | – | 23 fold | < 30% | – | – | CCCCCCCCCC(=O)NCc1ccc(/N=N/c2cncc(C(N)=O)c2)cc1 [15 f] | n.i. (n.i.: no inhibition detected (<30 % @ 100 μM)) | n.i. (n.i.: no inhibition detected (<30 % @ 100 μM)) |
| twofold | 1.6 ± 0.2 µM | 0.7 ± 0.21 µM | – | < 30% | – | – | – | – | – | – | 24% | 23% | – | < 30% | – | – | NC(=O)c1cncc(OCc2cccc(/N=N/c3ccc(OCc4ccccc4)cc3)c2)c1 [20 a] | – | – |
| twofold | 6.4 ± 0.5 µM | 3.2 ± 0.5 µM | – | < 30% | – | – | – | – | – | – | 47% | 34% | – | < 30% | – | – | NC(=O)c1cncc(OCc2cccc(/N=N/c3ccc(F)cc3)c2)c1 [20 b] | – | – |
| – | 6.2 ± 0.54 µM | – | – | – | – | 17.2 ± 1.57 µM | – | 62% | – | – | – | – | – | – | 45% | u.i. | C#Cc1ccc(/N=N/c2cccc(COc3cncc(C(N)=O)c3)c2)cc1 [20 c] | – | u.i. |
